Test [1] deals with T1, Serine/threonine-protein kinase ULK3 (Homo sapiens) (UniProt Q6PHR2).
T1 sequence (whole entry): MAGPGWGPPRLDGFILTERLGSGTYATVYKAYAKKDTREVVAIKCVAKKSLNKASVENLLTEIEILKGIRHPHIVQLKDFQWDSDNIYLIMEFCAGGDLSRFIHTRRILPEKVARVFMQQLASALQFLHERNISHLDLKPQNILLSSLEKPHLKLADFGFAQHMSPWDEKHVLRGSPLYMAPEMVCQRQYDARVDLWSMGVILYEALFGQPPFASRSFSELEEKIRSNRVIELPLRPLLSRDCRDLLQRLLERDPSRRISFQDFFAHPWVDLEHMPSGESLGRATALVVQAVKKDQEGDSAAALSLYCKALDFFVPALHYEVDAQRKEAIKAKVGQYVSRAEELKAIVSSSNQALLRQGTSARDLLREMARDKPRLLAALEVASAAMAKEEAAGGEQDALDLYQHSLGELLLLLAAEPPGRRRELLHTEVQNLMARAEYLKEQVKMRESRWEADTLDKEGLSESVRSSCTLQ
The experiment in a line: Selectivity interaction (LanthaScreen Eu Kinase Binding Assay) EUB0001632a ULK3. The settings on record: at 10 µM.

Test [2] has as its target Hepatocyte growth factor-like protein (Homo sapiens) (UniProt P26927). The experiment in a line: Selectivity interaction (Ambit KINOMEscan and KiNATiv profiling in Jurkat cells) EUB0000090b MST1. In kind it is cell-based. To be noted: at 1 µM.
For test [3], the target named is T2, Serine/threonine-protein kinase MAK (Homo sapiens) (UniProt P20794).
T2 sequence (whole entry): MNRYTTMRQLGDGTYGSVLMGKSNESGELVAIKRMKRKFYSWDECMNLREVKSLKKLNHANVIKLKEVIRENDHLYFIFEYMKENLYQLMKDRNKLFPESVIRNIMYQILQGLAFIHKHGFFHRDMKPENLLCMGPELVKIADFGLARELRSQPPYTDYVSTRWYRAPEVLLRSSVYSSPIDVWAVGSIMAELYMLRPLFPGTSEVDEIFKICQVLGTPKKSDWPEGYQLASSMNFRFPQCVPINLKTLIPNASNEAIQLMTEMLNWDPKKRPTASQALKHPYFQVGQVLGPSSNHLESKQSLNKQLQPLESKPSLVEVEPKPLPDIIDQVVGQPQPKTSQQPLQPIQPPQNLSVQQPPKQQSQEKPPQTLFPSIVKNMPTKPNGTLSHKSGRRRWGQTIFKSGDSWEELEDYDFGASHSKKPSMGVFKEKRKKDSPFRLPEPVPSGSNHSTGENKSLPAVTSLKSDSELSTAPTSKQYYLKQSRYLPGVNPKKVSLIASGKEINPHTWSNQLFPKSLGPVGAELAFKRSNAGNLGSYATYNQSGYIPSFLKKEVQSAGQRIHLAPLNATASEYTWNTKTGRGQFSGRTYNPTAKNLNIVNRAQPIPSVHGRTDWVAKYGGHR
The settings on record: at 10 µM.

The target in test [4] is Serine/threonine-protein kinase 35 (Homo sapiens) (UniProt Q8TDR2). Briefly: Selectivity interaction (KinomeScan (DiscoverX)) EUB0000666a STK35. To be noted: at 10 µM.
The target of test [5] is Serine/threonine-protein kinase OSR1 (Homo sapiens) (UniProt O95747). Briefly: Selectivity interaction (KinomeScan (DiscoverX)) EUB0000655a OXSR1. To be noted: at 10 µM.
The target of test [6] is D(1A) dopamine receptor (Homo sapiens, UniProt P21728). The experiment in a line: Selectivity interaction (GPCR panel (PDSP screen)) EUB0000311b DRD1. The settings on record: at 10 µM.
The target of test [7] is T3, Casein kinase I isoform alpha-like (Homo sapiens) (UniProt Q8N752).
T3 sequence (whole entry): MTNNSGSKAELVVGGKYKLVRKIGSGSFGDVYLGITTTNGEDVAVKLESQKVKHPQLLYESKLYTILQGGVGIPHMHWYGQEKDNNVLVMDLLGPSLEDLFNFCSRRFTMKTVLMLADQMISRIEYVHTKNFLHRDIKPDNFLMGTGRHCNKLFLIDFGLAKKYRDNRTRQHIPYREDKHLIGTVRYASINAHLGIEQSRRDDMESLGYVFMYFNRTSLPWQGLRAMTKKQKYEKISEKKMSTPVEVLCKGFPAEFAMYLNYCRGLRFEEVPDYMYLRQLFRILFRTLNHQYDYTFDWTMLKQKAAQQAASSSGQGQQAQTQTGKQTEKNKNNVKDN
The experiment in a line: Selectivity interaction (KinomeScan (DiscoverX)) EUB0001619a CSNK1A1L. The settings on record: at 1 µM.

The target in test [8] is Insulin receptor-related protein (Homo sapiens) (UniProt P14616). The experiment in a line: Selectivity interaction (KinomeScan (DiscoverX)) EUB0001619a INSRR. The settings on record: at 1 µM.
Test [9] deals with T4, Mitogen-activated protein kinase 15 (Homo sapiens) (UniProt Q8TD08).
T4 sequence (whole entry): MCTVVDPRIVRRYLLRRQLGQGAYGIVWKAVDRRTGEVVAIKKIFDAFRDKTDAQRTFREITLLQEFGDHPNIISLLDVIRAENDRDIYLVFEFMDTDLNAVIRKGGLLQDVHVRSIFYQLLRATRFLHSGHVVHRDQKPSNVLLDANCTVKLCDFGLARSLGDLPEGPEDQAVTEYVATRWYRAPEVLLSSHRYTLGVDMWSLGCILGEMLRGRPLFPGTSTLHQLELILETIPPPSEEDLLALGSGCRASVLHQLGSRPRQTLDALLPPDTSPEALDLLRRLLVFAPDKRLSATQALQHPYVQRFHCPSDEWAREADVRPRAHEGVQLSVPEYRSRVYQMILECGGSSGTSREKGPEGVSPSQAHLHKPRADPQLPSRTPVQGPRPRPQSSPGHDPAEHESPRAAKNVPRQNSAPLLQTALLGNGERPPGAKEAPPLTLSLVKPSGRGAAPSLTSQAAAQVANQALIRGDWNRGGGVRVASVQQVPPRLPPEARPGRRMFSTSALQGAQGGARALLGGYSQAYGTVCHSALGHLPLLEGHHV
Briefly: Selectivity interaction (Kinase panel (literature)) EUB0001199aCl MAPK15. The settings on record: at 1 µM.

Test [10] has as its target Cannabinoid receptor 1 (Homo sapiens, UniProt P21554). The experiment in a line: Selectivity interaction (Cannabinoid CB1 calcium flux assay, agonist and antagonist mode ) EUB0000877a CNR1.
Test [11] deals with Serine/threonine-protein kinase PAK 4 (Homo sapiens, UniProt O96013).
Test [12] deals with Ephrin type-A receptor 4 (Homo sapiens, UniProt P54764). Briefly: Selectivity interaction (KinomeScan (DiscoverX)) EUB0000092b EPHA4. The settings on record: at 10 µM.
For test [13], the system named is Hepatocyte growth factor receptor (Homo sapiens), P08581 [M1250T]. Briefly: (§1) Selectivity interaction (KinomeScan (DiscoverX)) EUB0000092b MET. To be noted: at 10 µM.
The test system of test [14] is Hepatocyte growth factor receptor (Homo sapiens), P08581 [Y1235D]. The description is as §1. The settings on record: at 10 µM.
Test [15] concerns the target Hepatocyte growth factor receptor (Homo sapiens, UniProt P08581). The test is described as §1. The settings on record: at 10 µM.
Test [16] concerns the target Mitogen-activated protein kinase kinase kinase kinase 1 (Homo sapiens) (UniProt Q92918). The experiment in a line: Selectivity interaction (KinomeScan (DiscoverX)) EUB0000595a MAP4K1. To be noted: at 10 µM.

Some results are limits rather than exact numbers.

Sequence of Ephrin type-A receptor 4 (P54764 whole entry): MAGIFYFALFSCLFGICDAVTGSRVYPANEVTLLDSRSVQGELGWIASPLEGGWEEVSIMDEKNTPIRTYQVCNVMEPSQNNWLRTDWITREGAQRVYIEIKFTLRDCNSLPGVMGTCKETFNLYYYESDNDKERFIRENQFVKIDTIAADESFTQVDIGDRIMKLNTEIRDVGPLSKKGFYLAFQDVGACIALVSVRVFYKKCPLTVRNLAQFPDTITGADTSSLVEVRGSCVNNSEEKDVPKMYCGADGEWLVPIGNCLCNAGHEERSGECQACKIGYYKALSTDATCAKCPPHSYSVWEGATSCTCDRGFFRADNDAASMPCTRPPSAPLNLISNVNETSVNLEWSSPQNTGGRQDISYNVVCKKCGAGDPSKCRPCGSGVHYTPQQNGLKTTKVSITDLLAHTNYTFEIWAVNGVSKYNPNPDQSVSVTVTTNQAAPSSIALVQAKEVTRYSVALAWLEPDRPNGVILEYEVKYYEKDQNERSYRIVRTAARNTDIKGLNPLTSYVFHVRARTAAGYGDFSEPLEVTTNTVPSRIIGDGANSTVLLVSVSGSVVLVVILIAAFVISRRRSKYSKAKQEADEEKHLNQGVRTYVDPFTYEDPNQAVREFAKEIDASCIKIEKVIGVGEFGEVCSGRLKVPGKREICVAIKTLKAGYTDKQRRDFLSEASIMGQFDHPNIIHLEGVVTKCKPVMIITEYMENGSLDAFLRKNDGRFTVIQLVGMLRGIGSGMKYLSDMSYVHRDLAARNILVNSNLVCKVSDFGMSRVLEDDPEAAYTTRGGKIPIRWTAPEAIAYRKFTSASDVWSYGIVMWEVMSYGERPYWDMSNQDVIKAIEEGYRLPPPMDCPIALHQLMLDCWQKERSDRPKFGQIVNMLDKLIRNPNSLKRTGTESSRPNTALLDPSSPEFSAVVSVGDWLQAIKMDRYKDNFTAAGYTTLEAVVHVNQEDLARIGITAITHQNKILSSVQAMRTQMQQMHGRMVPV
Sequence of Hepatocyte growth factor receptor (P08581 whole entry): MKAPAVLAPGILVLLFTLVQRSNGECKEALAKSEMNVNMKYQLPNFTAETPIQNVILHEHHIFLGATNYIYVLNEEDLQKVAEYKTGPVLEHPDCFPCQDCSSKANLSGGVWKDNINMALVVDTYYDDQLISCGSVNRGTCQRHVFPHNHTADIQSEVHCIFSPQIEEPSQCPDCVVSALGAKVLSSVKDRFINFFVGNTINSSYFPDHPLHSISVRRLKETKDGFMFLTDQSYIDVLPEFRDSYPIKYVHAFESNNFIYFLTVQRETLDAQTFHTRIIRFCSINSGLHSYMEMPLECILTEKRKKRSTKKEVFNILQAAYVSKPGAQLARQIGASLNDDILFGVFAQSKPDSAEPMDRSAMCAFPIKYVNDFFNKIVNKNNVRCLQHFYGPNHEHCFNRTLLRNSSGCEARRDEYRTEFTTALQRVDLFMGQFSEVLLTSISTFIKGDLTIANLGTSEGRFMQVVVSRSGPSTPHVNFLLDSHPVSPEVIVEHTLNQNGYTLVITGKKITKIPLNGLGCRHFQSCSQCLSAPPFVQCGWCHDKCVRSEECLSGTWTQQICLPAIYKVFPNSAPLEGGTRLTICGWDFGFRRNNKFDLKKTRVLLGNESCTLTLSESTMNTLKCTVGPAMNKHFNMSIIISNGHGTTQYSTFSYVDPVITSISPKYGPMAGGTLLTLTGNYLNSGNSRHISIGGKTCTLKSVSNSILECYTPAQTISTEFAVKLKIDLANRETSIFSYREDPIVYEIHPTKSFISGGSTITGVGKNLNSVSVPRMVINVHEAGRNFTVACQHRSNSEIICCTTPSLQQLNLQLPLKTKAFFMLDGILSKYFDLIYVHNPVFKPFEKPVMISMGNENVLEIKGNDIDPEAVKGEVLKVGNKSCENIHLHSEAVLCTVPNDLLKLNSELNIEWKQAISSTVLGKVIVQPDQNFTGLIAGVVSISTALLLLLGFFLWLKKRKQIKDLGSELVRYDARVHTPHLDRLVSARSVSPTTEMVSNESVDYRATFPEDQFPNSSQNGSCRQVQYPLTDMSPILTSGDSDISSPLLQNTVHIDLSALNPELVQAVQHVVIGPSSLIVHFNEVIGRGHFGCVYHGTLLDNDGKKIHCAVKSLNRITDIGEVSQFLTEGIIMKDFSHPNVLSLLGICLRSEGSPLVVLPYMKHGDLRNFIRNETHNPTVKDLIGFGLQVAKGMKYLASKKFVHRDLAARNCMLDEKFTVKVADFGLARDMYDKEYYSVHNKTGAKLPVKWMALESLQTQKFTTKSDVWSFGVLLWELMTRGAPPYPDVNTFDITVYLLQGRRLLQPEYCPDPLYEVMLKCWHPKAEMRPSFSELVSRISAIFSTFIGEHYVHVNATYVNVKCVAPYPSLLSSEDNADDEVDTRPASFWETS
Sequence of Mitogen-activated protein kinase kinase kinase kinase 1 (Homo sapiens) (Q92918 whole entry, looked up): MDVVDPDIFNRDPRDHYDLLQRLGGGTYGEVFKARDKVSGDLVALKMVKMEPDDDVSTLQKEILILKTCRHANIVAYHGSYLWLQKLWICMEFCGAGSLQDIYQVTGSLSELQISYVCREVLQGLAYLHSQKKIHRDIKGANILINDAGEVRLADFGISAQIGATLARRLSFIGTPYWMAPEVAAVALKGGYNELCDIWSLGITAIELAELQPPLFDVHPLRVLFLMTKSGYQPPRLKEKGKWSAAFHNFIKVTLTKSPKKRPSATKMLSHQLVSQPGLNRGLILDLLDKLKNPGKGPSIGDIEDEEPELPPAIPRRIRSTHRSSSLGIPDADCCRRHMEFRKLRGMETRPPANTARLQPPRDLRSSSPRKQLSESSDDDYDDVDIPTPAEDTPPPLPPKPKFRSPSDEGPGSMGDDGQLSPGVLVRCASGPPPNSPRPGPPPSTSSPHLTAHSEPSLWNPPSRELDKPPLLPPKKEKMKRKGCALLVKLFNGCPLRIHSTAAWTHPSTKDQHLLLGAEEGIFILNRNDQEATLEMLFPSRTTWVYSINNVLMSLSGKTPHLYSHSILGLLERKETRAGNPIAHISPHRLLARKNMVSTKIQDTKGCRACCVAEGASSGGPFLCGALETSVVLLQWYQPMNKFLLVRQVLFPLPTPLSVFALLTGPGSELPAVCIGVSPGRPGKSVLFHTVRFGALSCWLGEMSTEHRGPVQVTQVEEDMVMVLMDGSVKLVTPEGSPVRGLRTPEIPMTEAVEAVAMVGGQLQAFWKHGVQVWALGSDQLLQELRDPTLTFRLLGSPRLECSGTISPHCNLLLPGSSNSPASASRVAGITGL
Sequence of Hepatocyte growth factor receptor (Homo sapiens), P08581 [M1250T] (P08581 whole entry M1250T): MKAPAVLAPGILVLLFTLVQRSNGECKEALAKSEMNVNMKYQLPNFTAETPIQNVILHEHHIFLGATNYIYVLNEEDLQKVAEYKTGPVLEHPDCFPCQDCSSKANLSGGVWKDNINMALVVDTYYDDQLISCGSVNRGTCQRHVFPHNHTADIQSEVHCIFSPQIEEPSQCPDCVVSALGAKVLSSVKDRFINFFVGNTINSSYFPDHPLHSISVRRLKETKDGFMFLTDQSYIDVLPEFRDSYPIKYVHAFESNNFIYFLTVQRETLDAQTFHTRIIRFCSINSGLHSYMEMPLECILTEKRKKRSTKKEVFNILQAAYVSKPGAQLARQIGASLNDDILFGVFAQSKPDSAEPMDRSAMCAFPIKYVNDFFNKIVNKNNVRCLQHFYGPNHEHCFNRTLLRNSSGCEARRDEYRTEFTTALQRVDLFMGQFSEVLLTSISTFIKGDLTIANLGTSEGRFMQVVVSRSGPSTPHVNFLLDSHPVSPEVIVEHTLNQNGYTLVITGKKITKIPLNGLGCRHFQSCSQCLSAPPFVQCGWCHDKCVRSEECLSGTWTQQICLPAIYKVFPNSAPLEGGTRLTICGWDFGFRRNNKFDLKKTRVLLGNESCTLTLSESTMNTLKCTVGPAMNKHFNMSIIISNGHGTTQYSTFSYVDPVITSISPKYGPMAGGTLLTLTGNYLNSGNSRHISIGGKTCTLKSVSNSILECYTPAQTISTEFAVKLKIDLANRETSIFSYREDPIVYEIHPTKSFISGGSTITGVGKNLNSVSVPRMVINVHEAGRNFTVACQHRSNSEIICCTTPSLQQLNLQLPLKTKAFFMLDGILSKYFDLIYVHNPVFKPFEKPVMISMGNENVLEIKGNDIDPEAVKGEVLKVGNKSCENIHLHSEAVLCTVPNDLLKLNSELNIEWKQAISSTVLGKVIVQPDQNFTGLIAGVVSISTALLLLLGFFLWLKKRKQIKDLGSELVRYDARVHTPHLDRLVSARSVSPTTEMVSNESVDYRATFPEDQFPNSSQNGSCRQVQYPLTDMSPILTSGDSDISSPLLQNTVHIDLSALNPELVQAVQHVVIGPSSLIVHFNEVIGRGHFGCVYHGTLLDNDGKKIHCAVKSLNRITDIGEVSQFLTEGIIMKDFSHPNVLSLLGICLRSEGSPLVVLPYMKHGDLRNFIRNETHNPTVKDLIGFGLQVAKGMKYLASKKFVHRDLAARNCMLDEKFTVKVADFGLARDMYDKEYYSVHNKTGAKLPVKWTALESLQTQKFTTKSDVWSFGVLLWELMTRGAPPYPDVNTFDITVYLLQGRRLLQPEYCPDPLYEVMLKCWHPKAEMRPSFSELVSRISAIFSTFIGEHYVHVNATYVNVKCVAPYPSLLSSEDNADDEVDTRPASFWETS
Sequence of Serine/threonine-protein kinase OSR1 (Homo sapiens) (O95747 2-527 limits assumed): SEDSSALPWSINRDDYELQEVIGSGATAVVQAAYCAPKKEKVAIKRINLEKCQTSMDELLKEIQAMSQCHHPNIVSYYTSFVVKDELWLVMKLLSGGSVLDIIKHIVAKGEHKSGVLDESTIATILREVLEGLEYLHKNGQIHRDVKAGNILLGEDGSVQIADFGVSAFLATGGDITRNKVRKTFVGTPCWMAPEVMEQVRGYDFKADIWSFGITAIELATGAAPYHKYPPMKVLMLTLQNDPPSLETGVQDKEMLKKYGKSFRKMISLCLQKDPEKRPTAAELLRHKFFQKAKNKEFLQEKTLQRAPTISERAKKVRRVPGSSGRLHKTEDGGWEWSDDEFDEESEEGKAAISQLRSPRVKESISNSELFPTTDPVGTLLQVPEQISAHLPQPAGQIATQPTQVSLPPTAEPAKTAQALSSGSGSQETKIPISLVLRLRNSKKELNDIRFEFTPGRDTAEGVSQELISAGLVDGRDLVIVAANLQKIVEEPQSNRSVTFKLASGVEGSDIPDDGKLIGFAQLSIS

As to `Cn1cc(-n2cnc3c(NCc4nc5cc(Cl)c(Cl)cc5[nH]4)nc(N4CCOCC4)nc32)cn1`, the % of inhibition in test [1] was -290%.

In [2], `CN(C)C/C=C/C(=O)Nc1ccc(C(=O)N2CCCC(Nc3ncc(Cl)c(-c4c[nH]c5ccccc45)n3)C2)cc1` (stereo unspecified) registered a % of control of 78%.

As to `Cc1cc([C@@H](C)Nc2ccccc2C(=O)O)c2nc(N3CCOCC3)cc(=O)n2c1` [AZD-6482], the % of control in test [3] was found to be 67%.

`O=C(NOC[C@H](O)CO)c1ccc(F)c(F)c1Nc1ccc(I)cc1F` registered a % of control in test [4] of 83%.

`CN(C)CCOc1ccc(-c2nc(-c3ccncc3)c(-c3ccc4c(c3)CC/C4=N\O)[nH]2)cc1`: the % of control in test [5] is 100%.

Consider `CCc1ccccc1C(=O)Nc1n[nH]c2c(C)c(F)c(C3C(C#N)=C(C)N(C)C(C)=C3C#N)cc12` [BAY-3827], for which, in test [6], the % of inhibition was determined as 67.4%.

Consider `N#Cc1cccc(-c2c[nH]c3ncnc(N4CCOCC4)c23)c1`, for which the % of control in test [7] came out at 96%; in [8], 100%.

Take `CN1Cc2nccc(-c3cn(C)nc3-c3ccc(F)cc3)c2C1=O`: the % of inhibition in [9] worked out at 10%.

Consider `CCC(=O)N1CC[C@H](Nc2ncnc3c2CN(c2cnc(OC)c(C(F)(F)F)c2)CC3)C1` [LENIOLISIB], for which the IC50 in [10] is above 30 µM.

For the molecule `CCc1cccc(CC)c1NC(=O)c1nn(C)c2c1CCc1cnc(Nc3ccc(C(=O)NC4CCN(C)CC4)cc3OC(F)(F)F)nc1-2`, in [11], the concentration for half-maximal inhibition (IC50) is above 10 µM.

`CCC(=O)N1CCN(c2ccc(-n3c(=O)ccc4cnc5ccc(-c6cnc7ccccc7c6)cc5c43)cc2C(F)(F)F)CC1`: the % of control in test [12] amounted to 90%; in test [13], 79%; in [14], 100%; in test [15], 84%.

Take `COCC(=O)NC/C=C/c1ccc2ncnc(Nc3ccc(Oc4ccc(C)nc4)c(C)c3)c2c1` [CP-724714]: the % of control in [16] is 91%.
